Source: patent US20260284190A1, “METHODS FOR THE TREATMENT OF T-CELL ACUTE LYMPHOBLASTIC LEUKEMIA” (Institut Curie, priority 2023, published 2026)

Key:
T-ALL PDX cells = experiment: Transcriptome profiling (Affymetrix microarray) of T-ALL PDX in response to anti-CD3; assay type: in vivo, NSG mice; details: 40 μg, 6 hours; for expression of genes of interest (TNFR super family pathway, PD1): FIG. 1B; for TCR-induced signature: number of deregulated genes: 2X, p-value<0.05, common to both monoclonal antibodies, in vivo
From the text: Leukemic cells were then collected, flow-cytometry sorted, RNA isolated and analyzed using human Affymetrix arrays. […] FC: Fold Change. C RNA expression analysis (digitalized numeration of transcripts-mRNA) of genes of interest in M106 xenograft overtime after OKT3 treatment using Nanostring arrays: TNFα, LTα, TNFRSF9 (4-1BB), TNFRSF1B (TNFR2), TNFRSF4 (OX40) and PDCD1 (PD1). D Flow cytometry analysis of TNFRSF1B (TNFR2), TNFRSF1A (TNFR1), TNFRSF9 (4-1BB), TNFRSF4 (OX40) and PDCD1 (PD 1) cell surface expression in leukemic cells isolated from mice treated with 40μg of control IgG or OKT3 for 24h.
Total RNA was isolated from flow-cytometry-sorted leukemic cells (FSChi, hCD7+, hCD 45+) (6 hours following treatment with either 40 μg anti-CD 3 mAb or control IgG 2a antibody), using the Rneasy kit (QIAGEN). cRNA synthesis and hybridization of GeneChip Human Gene 2.0ST Array (Affymetrix) were according to the manufacturer's instructions, as described (http: //www-microarrays. u-strasbg. fr). A paired Student's t-test was performed to compare gene intensities in the different biological replicates. […] Hierarchical clustering analysis and pathway analyses on regulated genes (KEGG) were performed by Genosplice company.

[1] = test system: caspase 8 activity in T-ALL cells; experiment: Caspase 8 activity by flow cytometry in primary leukemic cells from treated leukemic mice; design: species or system NSG mice; details: in vivo, 6 h; FIG. 2
Experimental: FIG. 2: Caspase 8 activity as measured by flow cytometry in primary leukemic cells collected from leukemic mice treated by control IgG (n=3) or anti-CD3 (OKT3) (n=3) mAbs for 6 h.
Cell suspensions prepared from mouse lymphoid organs, bone marrow, or blood were stained with fluorochrome-labeled antibodies and analyzed on a FACSCanto cytometer (BD Biosciences), as recommended by manufacturer. Data are analyzed using Diva, CellQuest (BD Biosciences) and FlowJo (TreeStar) softwares. Antibodies used are: CD7-FITC (4H9), CD45-APC (2D4) (eBioscience), PD1-Alexa Fluor 647 (EH12.2H7) (Biolegend).

[2] = in vivo; cited from earlier work
[3] = test system: TCRαβ+ and TCRγδ+ T-ALL patients-derived xenografts; details: cited from earlier work

Row | Substance | expression of genes of interest (TNFR super family pathway, PD1) (T-ALL PDX cells) | TCR-induced signature: number of deregulated genes (T-ALL PDX cells) | caspase 8 activity in T-ALL cells [1] | adverse effects in humans [2] | final outcome of monotherapy ([3]; mice carrying TCR+ T-ALL PDX) | anti-leukemic effects over time ([3]; monotherapy of T-ALL PDX) | host survival ([3]; monotherapy of T-ALL PDX) | leukemic cells apoptosis ([3]; monotherapy of T-ALL PDX) | remission ([3]; monotherapy of T-ALL PDX)
1 | OKT3: anti-CD3ε monoclonal antibody (IgG2a) | significantly upregulated | ~600 | fast induction | – | – | – | – | – | –
2 | teplizumab: a humanized, mutated version of OKT3 which is FDA-approved in prevention of type I diabetes | significantly upregulated | ~600 | – | only minor adverse effects | – | – | – | – | –
3 | foralumab: a fully human anti-CD3 mAb | – | – | – | only minor adverse effects | leukemia relapse and resistance to TCR-directed therapy | profound anti-leukemic effects | improved host survival | within hours | durable remission
